The values below come from patent US20100003276A1 (priority 2004, published 2010).

The target of the assay is Bacillus anthracis lethal factor (Bacillus anthracis, UniProt P15917). Format: biochemical. The conditions noted are these: read-out: lethal factor enzyme binding assay IC50.

The structures appear in SMILES notation.

Chain of Bacillus anthracis lethal factor (P15917 34-809 limits assumed): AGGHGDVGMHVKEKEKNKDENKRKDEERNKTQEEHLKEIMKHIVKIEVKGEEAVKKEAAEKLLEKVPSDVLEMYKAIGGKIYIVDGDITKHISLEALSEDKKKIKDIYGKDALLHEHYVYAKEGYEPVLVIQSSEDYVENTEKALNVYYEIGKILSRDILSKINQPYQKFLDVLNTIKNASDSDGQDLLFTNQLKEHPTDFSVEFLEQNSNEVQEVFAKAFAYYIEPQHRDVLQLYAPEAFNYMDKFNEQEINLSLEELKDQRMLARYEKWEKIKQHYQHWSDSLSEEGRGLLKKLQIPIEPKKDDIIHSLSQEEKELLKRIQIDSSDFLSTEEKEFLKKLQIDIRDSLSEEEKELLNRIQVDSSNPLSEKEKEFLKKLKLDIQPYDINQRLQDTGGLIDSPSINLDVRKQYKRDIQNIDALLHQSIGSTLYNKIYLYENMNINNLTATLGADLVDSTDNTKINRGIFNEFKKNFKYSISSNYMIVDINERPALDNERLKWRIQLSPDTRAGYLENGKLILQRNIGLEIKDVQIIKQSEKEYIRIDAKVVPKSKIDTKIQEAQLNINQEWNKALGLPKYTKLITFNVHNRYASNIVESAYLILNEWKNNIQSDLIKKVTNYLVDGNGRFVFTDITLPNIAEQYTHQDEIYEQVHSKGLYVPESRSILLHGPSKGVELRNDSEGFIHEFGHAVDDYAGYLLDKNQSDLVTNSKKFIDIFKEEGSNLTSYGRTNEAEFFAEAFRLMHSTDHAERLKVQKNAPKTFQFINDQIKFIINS

As usually defined, the IC50 is the concentration at which inhibition is half-maximal. For `Cc1cc(S(=O)(=O)N[C@@H](C(=O)NO)C(C)C)ccc1F` [N-hydroxy-2(R)-[(4-fluoro-3-methylphenylsulfonyl)]amino-3-methylbutyramide], the IC50 was found to be 130 nM.
